Results on 1 compound are retold here after article PMC4315423 (Journal of Medicinal Chemistry, 2014).

Data set [1] in a line: aqueous kinetic solubility. In kind it is physicochemical. The settings on record: PBS aqueous buffer.
Data set [2] is described as follows: in vivo pharmacokinetics, plasma and brain, single ip dose in male C57BL/6 mice. Also on record: species or system mouse. The settings on record: ip 30 mg/kg.

Values after ≈ are worked out from the molar mass of the structure shown. Where only a bound is given, the exact number is not on record here.

For `CN1C(=O)c2ccccc2[S@+]([O-])c2ccc(C(=O)NCCc3cccs3)cc21` [compound 65, 10-Methyl-11-oxo-N-(2-(thiophen-2-yl)ethyl)-10,11-dihydrodibenzo[b,f][1,4]thiazepine-8-carboxamide 5-(S)-Oxide], the kinetic solubility (commonly the concentration staying in solution when a stock, usually in DMSO, is diluted into the medium) in data set [1] was 46.5 µg/mL (≈ 113 µM). Also, the “time to reach brain Cmax” value in data set [2] (brain, C57BL/6 mice) is reported as no more than 15 min. Also, in data set [2] (male C57BL/6 mice, at 5 min after dosing, lasted for about 2 h), the “behavioural observation after dosing” value is listed as “appeared less active”.
